Laboratory results as given in PubChem BioAssay (NCI).
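Compound exposure: 48 hours, 5 concentrations, 96-well plates. The concentration for 50% growth inhibition is given as GI50. TGI: concentration producing complete growth inhibition.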

Experiments:
Test in all cases: growth of human tumour cells (NCI), 48 h
[1] = system: HOP-62 NSCLC
[2] = system: HOP-92 NSCLC
[3] = system: HS 578T breast
[4] = system: K-562 leukemia
[5] = system: LOX IMVI melanoma
[6] = system: OVCAR-8 ovarian
[7] = system: SF-539 CNS
[8] = system: SK-MEL-28 melanoma
[9] = system: SNB-75 CNS
[10] = system: T-47D breast

| SMILES | GI50 [1] [µM] | TGI [1] [µM] | GI50 [2] [µM] | TGI [2] [µM] | GI50 [3] [µM] | TGI [3] [µM] | GI50 [4] [µM] | TGI [4] [µM] | GI50 [5] [µM] | TGI [5] [µM] | GI50 [6] [µM] | TGI [6] [µM] | GI50 [7] [µM] | TGI [7] [µM] | GI50 [8] [µM] | TGI [8] [µM] | GI50 [9] [µM] | TGI [9] [µM] | GI50 [10] [µM] | TGI [10] [µM] |
| --- | --- | --- | --- | --- | --- | --- | --- | --- | --- | --- | --- | --- | --- | --- | --- | --- | --- | --- | --- | --- |
| CCc1c(C#N)c(SC(C(N)=O)c2ccccc2)nc(N2CCC(N)CC2)c1C#N (stereo unspecified) | 15.9 | 30.6 | 4.56 | 19.2 | 14.1 | 41.1 | 12.4 | 28.6 | 14.3 | 27.4 | 15.9 | 33.7 | 15.3 | 28.9 | 14.7 | 27.9 | 11.2 | 24.6 | 14.6 | 31.8 |
| CN(C)c1ccc2c(c1)OC(N)=C(C#N)C2c1ccc2c(c1)CCCN2C (stereo unspecified) | 1.83 | 54.1 | 2.82 | 57 | 2.13 | > 100 | 0.493 | > 100 | 1.97 | 19.2 | 3.2 | 27.5 | 2.28 | 8.16 | 11 | 86.3 | 2.27 | > 100 | 11.7 | 51.6 |
| Oc1ccc(-c2[nH]c3ccccc3c2-c2nc3ccccc3o2)cc1 | 5.01 | 18.2 | 2.73 | 15.9 | 2.47 | 18.4 | 3.98 | 21.8 | 1.9 | 5.72 | 4.57 | 20.9 | 7.56 | 22.1 | 4.83 | 17.9 | 1.44 | 10.4 | 3.08 | 15.4 |
| OC1CSCCSCCCSCCSC1 |  | > 100 |  | > 100 |  | > 100 |  | > 100 |  | > 100 |  | > 100 |  | > 100 |  | > 100 |  | > 100 |  | > 100 |
| NCC(Cc1ccccc1)P(=O)(O)O (stereo unspecified) |  | > 100 |  | > 100 |  | > 100 |  | > 100 |  | > 100 |  | > 100 |  | > 100 |  | > 100 |  | > 100 |  | > 100 |
| O=C1C2C(C(=O)N1CC[Se][Se]CCN1C(=O)C3C(C1=O)[C@H]1C=C[C@@H]3C1)[C@H]1C=C[C@@H]2C1 (stereo partly specified) | 0.488 | 2.66 | 0.575 | 2.29 | 0.266 | 1.16 | 1.63 | > 38.5 | 0.167 | 0.327 | 0.404 | 2.28 | 0.223 | 0.467 | 0.362 | 3.02 | 0.171 | 0.488 | 2.09 | 5.42 |
| Nc1c(C(=O)Nc2ccccn2)sc2nc3c(cc12)CCCCCC3 | 1.55 | 11 | 1.86 | 11.4 | 0.935 | 12.4 | 0.204 | 38.5 | 2.97 | 41.9 | 2.21 | 15.8 | 0.58 | 3.07 | 1.63 | 19.6 | 0.649 | 21.6 | 2.09 | 34.6 |
| O=S(=O)(NCCCNc1nccc(-c2c(-c3cccc(F)c3)nc3occn23)n1)c1cccc2ccccc12 | 97.1 | > 100 | > 100 | > 100 | 8.36 | > 100 | 2.87 | > 100 | 4.28 | > 100 | 7.02 | > 100 | > 100 | > 100 | 23.6 | > 100 | 3.38 | > 100 | 2.59 | > 100 |
| CCN(CC)Cc1cc(Nc2cc(C(F)(F)F)c(C#N)c3nc4ccccc4n23)ccc1O | 3.05 | 11.4 | 0.59 | 3.48 | 2.39 | 12.1 | 3.1 | > 100 | 2.33 | 13.1 | 2.68 | 12.6 | 2.7 | 11 | 2.69 | 17.4 | 1.41 | 7.54 | 0.452 | 3.65 |
| CCOC(=O)C1=C(C)N(Cc2ccc(Cl)cc2Cl)[C@]2(C#N)C(O)=C(Cl)C(Cl)=C(O)[C@]12C#N | > 100 | > 100 | 17.9 | 44.2 | > 100 | > 100 | 28.1 | 57.5 | 17.5 | 35 | 73.4 | > 100 | 14.2 | 33.1 | > 100 | > 100 | 32.2 | 86.4 | 31.9 | 78.4 |
| Cc1cc(-c2ccco2)cc(C)c1/C=C/c1cncc(-c2nn[nH]n2)c1 | > 25 | > 25 | > 25 | > 25 | > 25 | > 25 | > 25 | > 25 | > 25 | > 25 | > 25 | > 25 | > 25 | > 25 | > 25 | > 25 | > 25 | > 25 | > 25 | > 25 |
| O=C(/C=C/c1cccc(Oc2ccc(Cl)cc2)c1)c1ccccc1 | 113 | 272 | 21.8 | 50.1 | 109 | 628 |  |  | 16.9 | 33 | 26.9 | 66.9 | 21.3 | 53.2 | 29.7 | 107 | 124 | 269 | 46.3 | 235 |
| C=C(C)[C@@H]1CC[C@]2(C(=O)n3ccnc3)CC[C@]3(C)[C@H](CC[C@@H]4[C@@]5(C)CCCNC(C)(C)[C@@H]5CC[C@]43C)[C@@H]12 | 1.75 | 3.31 | 1.49 | 2.96 | 2.08 | 5.08 |  |  | 1.62 | 3.05 | 2.07 | 3.88 | 1.58 | 3.03 | 1.61 | 3.1 | 2.48 | 10.1 | 1.53 | 3.54 |
